The nature of data set [1]: Drug excretion in cynomolgus monkey feces assessed as unchanged level of drug at 30 mg/kg, po administered on day 1, 2 and 4 by radio-LC/MS analysis. In kind it is ADME, organism-based, Macaca fascicularis. Details: dose 30 mg/kg, route oral. Conditions: read-out: Drug excretion.
Data set [2] deals with Cynomolgus monkey. Briefly: Drug metabolism in cynomolgus monkey assessed as 2-(6-carbamoyl-7-methoxyquinolin-4-ylthio)acetic acid formation at 30 mg/kg, po administered on day 1, 2 and 4 by radio-LC/MS analysis. In kind it is ADME, organism-based, Macaca fascicularis. Also on record: dose 30 mg/kg, route oral. Conditions: in vivo.
For data set [3], the system named is Cynomolgus monkey. In words: Drug metabolism in cynomolgus monkey assessed as 5-(3-(6-carbamoyl-7-methoxyquinolin-4-ylthio)-1-(carboxymethylamino)-1-oxopropan-2-ylamino)-[…]-5-oxopentanoic acid formation at 30 mg/kg, po administered on day 1, 2 and 4 by radio-LC/MS analysis. To be noted: in vivo. Details: dose 30 mg/kg, route oral. It is filed as ADME, organism-based, Macaca fascicularis.

Data set [4] relates to Cynomolgus monkey. Briefly: Drug metabolism in cynomolgus monkey assessed as 3,3'-disulfanediylbis(2-(6-carbamoyl-7-methoxyquinolin-4-ylamino)propanoic acid) formation at 30 mg/kg, po administered on day 1, 2 and 4 by radio-LC/MS analysis. In kind it is ADME, organism-based, Macaca fascicularis. Details: dose 30 mg/kg, route oral. To be noted: in vivo.
Data set [5] concerns Cynomolgus monkey. In words: Drug metabolism in cynomolgus monkey assessed as 2-(6-carbamoyl-7-methoxyquinolin-4-ylamino)-3-((2-(6-carbamoyl-7-methoxyquinolin-4-ylamino)-3-(carboxymethylamino)-3-oxopropyl)disulfanyl)propanoic acid formation at 30 mg/kg, po administered on day 1, 2 and 4 by radio-LC/MS analysis. It is filed as ADME, organism-based, Macaca fascicularis. Details: dose 30 mg/kg, route oral. To be noted: in vivo.

For data set [6], the system named is Cynomolgus monkey. Briefly: Drug metabolism in cynomolgus monkey assessed as 2-(6-carbamoyl-7-methoxyquinolin-4-ylamino)-3-mercaptopropanoic acid formation at 30 mg/kg, po administered on day 1, 2 and 4 by radio-LC/MS analysis. In kind it is ADME, organism-based, Macaca fascicularis. Also on record: dose 30 mg/kg, route oral. Conditions: in vivo.
Data set [7] concerns Cynomolgus monkey. In words: Drug metabolism in cynomolgus monkey assessed as 2-(6-carbamoyl-7-methoxyquinolin-4-ylamino)-3-(6-carbamoyl-7-methoxyquinolin-4-ylthio)propanoic acid formation at 30 mg/kg, po administered on day 1, 2 and 4 by radio-LC/MS analysis. It is filed as ADME, organism-based, Macaca fascicularis. Details: dose 30 mg/kg, route oral. To be noted: in vivo.

Data set [8] deals with Cynomolgus monkey. In words: Drug metabolism in cynomolgus monkey assessed as parent compound formation at 30 mg/kg, po administered on day 1, 2 and 4 by radio-LC/MS analysis. It is filed as ADME, organism-based, Macaca fascicularis. Details: dose 30 mg/kg, route oral. Conditions: in vivo.
Data set [9] in a line: Drug metabolism in cynomolgus monkey assessed as 2-(6-carbamoyl-7-methoxyquinolin-4-ylthio)acetic acid metabolite level in urine at 30 mg/kg, po administered on day 1, 2 and 4 by radio-LC/MS analysis. It is filed as ADME, organism-based, Macaca fascicularis. Details: dose 30 mg/kg, route oral. Conditions: in vivo.
A short description of data set [10]: Drug metabolism in cynomolgus monkey assessed as 5-(3-(6-carbamoyl-7-methoxyquinolin-4-ylthio)-1-(carboxymethylamino)-1-oxopropan-2-ylamino)-[…]-5-oxopentanoic acid metabolite level in liver at 30 mg/kg, po administered on day 1, 2 and 4 by radio-LC/MS analysis. It is filed as ADME, organism-based, Macaca fascicularis. Details: dose 30 mg/kg, route oral. Conditions: in vivo.

The nature of data set [11]: Drug metabolism in cynomolgus monkey assessed as 3,3'-disulfanediylbis(2-(6-carbamoyl-7-methoxyquinolin-4-ylamino)propanoic acid) metabolite level in bile at 30 mg/kg, po administered on day 1, 2 and 4 by radio-LC/MS analysis. Conditions: in vivo. It is filed as ADME, organism-based, Macaca fascicularis. Also on record: dose 30 mg/kg, route oral.
The nature of data set [12]: Drug metabolism in cynomolgus monkey assessed as 3,3'-disulfanediylbis(2-(6-carbamoyl-7-methoxyquinolin-4-ylamino)propanoic acid) metabolite level in urine at 30 mg/kg, po administered on day 1, 2 and 4 by radio-LC/MS analysis. It is filed as ADME, organism-based, Macaca fascicularis. Also on record: dose 30 mg/kg, route oral. To be noted: in vivo.
The nature of data set [13]: Drug metabolism in cynomolgus monkey assessed as 2-(6-carbamoyl-7-methoxyquinolin-4-ylamino)-3-((2-(6-carbamoyl-7-methoxyquinolin-4-ylamino)-3-(carboxymethylamino)-3-oxopropyl)disulfanyl)propanoic acid metabolite level in urine at 30 mg/kg, po administered on day 1, 2 and 4 by radio-LC/MS analysis. Details: dose 30 mg/kg, route oral. In kind it is ADME, organism-based, Macaca fascicularis. To be noted: in vivo.

Data set [14] in a line: Drug metabolism in cynomolgus monkey assessed as 2-(6-carbamoyl-7-methoxyquinolin-4-ylamino)-3-mercaptopropanoic acid metabolite level in bile at 30 mg/kg, po administered on day 1, 2 and 4 by radio-LC/MS analysis. It is filed as ADME, organism-based, Macaca fascicularis. Details: dose 30 mg/kg, route oral. To be noted: in vivo.
A short description of data set [15]: Drug metabolism in cynomolgus monkey assessed as 2-(6-carbamoyl-7-methoxyquinolin-4-ylamino)-3-mercaptopropanoic acid metabolite level in liver at 30 mg/kg, po administered on day 1, 2 and 4 by radio-LC/MS analysis. Details: dose 30 mg/kg, route oral. In kind it is ADME, organism-based, Macaca fascicularis. To be noted: in vivo.
The nature of data set [16]: Drug metabolism in cynomolgus monkey assessed as 2-(6-carbamoyl-7-methoxyquinolin-4-ylamino)-3-(6-carbamoyl-7-methoxyquinolin-4-ylthio)propanoic acid metabolite level in bile at 30 mg/kg, po administered on day 1, 2 and 4 by radio-LC/MS analysis. It is filed as ADME, organism-based, Macaca fascicularis. Details: dose 30 mg/kg, route oral. To be noted: in vivo.
A short description of data set [17]: Drug metabolism in cynomolgus monkey assessed as 2-(6-carbamoyl-7-methoxyquinolin-4-ylamino)-3-(6-carbamoyl-7-methoxyquinolin-4-ylthio)propanoic acid metabolite level in urine at 30 mg/kg, po administered on day 1, 2 and 4 by radio-LC/MS analysis. Also on record: dose 30 mg/kg, route oral. To be noted: in vivo. In kind it is ADME, organism-based, Macaca fascicularis.

The nature of data set [18]: Drug metabolism in cynomolgus monkey assessed as 2-(6-carbamoyl-7-methoxyquinolin-4-ylamino)-3-(6-carbamoyl-7-methoxyquinolin-4-ylthio)propanoic acid metabolite level in liver at 30 mg/kg, po administered on day 1, 2 and 4 by radio-LC/MS analysis. Also on record: dose 30 mg/kg, route oral. In kind it is ADME, organism-based, Macaca fascicularis. To be noted: in vivo.

Data set [19] can be described thus: Drug metabolism in cynomolgus monkey assessed as parent compound level in bile at 30 mg/kg, po administered on day 1, 2 and 4 by radio-LC/MS analysis. In kind it is ADME, organism-based, Macaca fascicularis. Details: dose 30 mg/kg, route oral. Conditions: in vivo.
Data set [20] is described as follows: Drug metabolism in cynomolgus monkey assessed as parent compound level in liver at 30 mg/kg, po administered on day 1, 2 and 4 by radio-LC/MS analysis. It is filed as ADME, organism-based, Macaca fascicularis. Also on record: dose 30 mg/kg, route oral. Conditions: in vivo.
A further data set has as its system Plasma. In words: Drug metabolism in cynomolgus monkey assessed as parent compound level in plasma at 30 mg/kg, po administered on day 1, 2 and 4 by radio-LC/MS analysis. In kind it is ADME, organism-based, Macaca fascicularis. Also on record: dose 30 mg/kg, route oral. To be noted: in vivo.
The subject of data set [21] is Cynomolgus monkey. In words: Drug metabolism in cynomolgus monkey treated with 30 mg/kg, po of [14C]lenvatinib administered on day 1, 2 and 4 by radio-LC/MS analysis. Also on record: dose 30 mg/kg, route oral. To be noted: in vivo. In kind it is ADME, organism-based, Macaca fascicularis.
In data set [22] the test system is Cynomolgus monkey. Briefly: Drug retention time in cynomolgus monkey treated with 30 mg/kg, po of [14C]lenvatinib administered on day 1, 2 and 4 by radio-LC/MS analysis. To be noted: in vivo. In kind it is ADME, organism-based, Macaca fascicularis. Details: dose 30 mg/kg, route oral.
Data set [23] is described as follows: Drug metabolism in cynomolgus monkey liver S9 fraction treated with 50 uM of lenvatinib up to 120 mins by HPLC analysis in presence of GSH and NADPH. In kind it is ADME, subcellular, Macaca fascicularis. Conditions: s9, 2 h.
A short description of data set [24]: Drug metabolism in cynomolgus monkey liver S9 fraction treated with 50 uM of lenvatinib up to 120 mins by HPLC analysis in presence of GSH and absence of NADPH. In kind it is ADME, Macaca fascicularis. To be noted: s9, 2 h.
Data set [25] in a line: Drug metabolism in human liver S9 fraction treated with 50 uM of lenvatinib up to 120 mins by HPLC analysis in presence of GSH and NADPH. In kind it is ADME, subcellular. Conditions: s9, 2 h.
A short description of data set [26]: Drug metabolism in human liver S9 fraction treated with 50 uM of lenvatinib up to 120 mins by HPLC analysis in presence of GSH and absence of NADPH. In kind it is ADME. To be noted: s9, 2 h.
Data set [27] in a line: Drug metabolism in Sprague-Dawley rat liver S9 fraction treated with 50 uM of lenvatinib up to 60 mins by HPLC analysis in presence of GSH and NADPH. To be noted: s9, 1 h.
Data set [28] is described as follows: Drug metabolism in Sprague-Dawley rat liver S9 fraction treated with 50 uM of lenvatinib up to 60 mins by HPLC analysis in presence of GSH and absence of NADPH. Conditions: s9, 1 h.

On to `COc1cc2n[14cH]cc(Oc3ccc(NC(=O)NC4CC4)c(Cl)c3)c2cc1C(N)=O.CS(=O)(=O)O`, for which, in data set [1], the dose excreted worked out at 51%. For the same compound, the Drug metabolism entry in the data set on Cynomolgus monkey [2], in the data set with Cynomolgus monkey [3], in the data set on Cynomolgus monkey [4], with Cynomolgus monkey [5], with Cynomolgus monkey [6] and in the data set on Cynomolgus monkey [7] was “metabolite_detected” throughout. The Drug metabolism entry (in the data set on Cynomolgus monkey [8]; in data set [9]; in [10]; in data set [11]; in [12]; in data set [13]) was “metabolite_detected” in each case. For the same compound, the Drug metabolism entry in [14], in data set [15], in [16], in data set [17], in data set [18] and in data set [19] was “metabolite_detected” throughout. The Drug metabolism entry (in data set [20]; in the data set on Plasma) was “metabolite_detected” each time.

As to `COc1cc2nccc(N[C@@H](CSSC[C@H](Nc3ccnc4cc(OC)c(C(N)=O)cc34)C(=O)NCC(=O)O)C(=O)O)c2cc1C(N)=O`, the Drug metabolism result in the data set with Cynomolgus monkey [21] is listed as “metabolite_detected”. For the same compound, in the data set on Cynomolgus monkey [22], the Retention_time worked out at 14.1 min.

For `COc1cc2nccc(SCC(=O)O)c2cc1C(N)=O`, the Drug metabolism entry with Cynomolgus monkey [21] was “metabolite_detected”. In the data set on Cynomolgus monkey [22], the Retention_time is 12.2 min.

For the compound `COc1cc2nccc(SC[C@H](NC(=O)CC[C@H](N)C(=O)O)C(=O)NCC(=O)O)c2cc1C(N)=O`, the Drug metabolism entry (with Cynomolgus monkey [21]; in [23]; in data set [24]; in [25]; in data set [26]; in data set [27]) was “metabolite_detected” throughout. The Drug metabolism entry in data set [28] is “metabolite_detected”. The compound further came in with a Retention_time in the data set on Cynomolgus monkey [22] of 13.1 min.
